In PubChem BioAssay (NCI):
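Values below derive from 48-hour exposures of cells grown in 96-well plates, with endpoints linearly interpolated between the two concentrations bracketing the appropriate inhibition level. The concentration for 50% growth inhibition is given as GI50. TGI: total growth inhibition.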

Experiments:
Test in all cases: NCI-60 cell line screen, 48 h
[1] = system: A549 NSCLC
[2] = system: UO-31 renal
[3] = system: HCT-15 colon
[4] = system: KM12 colon
[5] = system: HCT-116 colon
[6] = system: NCI/ADR-RES ovarian
[7] = system: UACC-257 melanoma
[8] = system: K-562 leukemia
[9] = system: HOP-62 NSCLC
[10] = system: CCRF-CEM leukemia
[11] = system: SR leukemia
[12] = system: NCI-H226 lung
[13] = system: MDA-MB-231 breast
[14] = system: RPMI-8226 leukemia
[15] = system: MOLT-4 leukemia
[16] = system: HS 578T breast
[17] = system: MALME-3M melanoma
[18] = system: MCF7 breast
[19] = system: SNB-19 CNS
[20] = system: OVCAR-4 ovarian
[21] = system: SF-295 CNS
[22] = system: SK-MEL-2 melanoma
[23] = system: ACHN renal
[24] = system: SF-539 CNS
[25] = system: CAKI-1 renal
[26] = system: M14 melanoma
[27] = system: SNB-75 CNS
[28] = system: SK-MEL-28 melanoma
[29] = system: OVCAR-5 ovarian
[30] = system: SK-OV-3 ovarian
[31] = system: LOX IMVI melanoma
[32] = system: DU-145 prostate
[33] = system: UACC-62 melanoma
[34] = system: NCI-H460 lung
[35] = system: COLO 205 colon
[36] = system: EKVX NSCLC
[37] = system: NCI-H522 lung
[38] = system: SK-MEL-5 melanoma
[39] = system: T-47D breast
[40] = system: IGROV1 ovarian
[41] = system: RXF 393 renal
[42] = system: A498 renal
[43] = system: TK-10 renal
[44] = system: NCI-H23 lung
[45] = system: OVCAR-3 ovarian
[46] = system: HT29 colon
[47] = system: SW-620 colon
[48] = system: 786-0 renal
[49] = system: SF-268 CNS
[50] = system: BT-549 breast
[51] = system: U251 CNS
[52] = system: HL-60(TB) leukemia
[53] = system: HCC-2998 colon
[54] = system: OVCAR-8 ovarian
[55] = system: MDA-MB-435

**Q.** COC(=O)C(Cc1ccccc1)C(=O)C(CC(=O)OC(C)(C)C)NC(=O)OC(C)(C)C (stereo not drawn) was tested. Which GI50 [1] did it give?
**A.** Its GI50 is 26.2 µg/mL.

**Q.** What about the GI50 [2] of the same compound?
**A.** Its GI50 is 24.7 µg/mL.

**Q.** What about the TGI [2] of the same compound?
**A.** The TGI was 66.8 µg/mL.

**Q.** What about the GI50 [3] of the same compound?
**A.** Its GI50 is 28.2 µg/mL.

**Q.** What about the GI50 [4] of the same compound?
**A.** Its GI50 is 59.7 µg/mL.

**Q.** What about the GI50 [5] of the same compound?
**A.** The GI50 was 26.5 µg/mL.

**Q.** And the TGI [5]?
**A.** Its TGI is 87.9 µg/mL.

**Q.** CC1=C(C)C(=O)OC([C@](C)(O)[C@]2(O)CC[C@@]3(O)[C@@H]4C[C@H]5O[C@]56CC=CC(=O)[C@]6(C)[C@H]4CC[C@]23COC(=O)c2ccc(C)o2)C1 (stereo partly drawn) was tested. Which TGI [6] did it give?
**A.** The TGI was greater than 79.7 µM.

**Q.** And the TGI [7]?
**A.** The TGI was greater than 20.9 µM.

**Q.** And the TGI [8]?
**A.** Its TGI is greater than 43.5 µM.

**Q.** And the TGI [9]?
**A.** Its TGI is greater than 21 µM.

**Q.** And the TGI [10]?
**A.** The TGI was greater than 35.4 µM.

**Q.** What about the TGI [11] of the same compound?
**A.** The TGI was greater than 100 µM.

**Q.** And the TGI [12]?
**A.** The TGI was greater than 33 µM.

**Q.** What about the TGI [1] of the same compound?
**A.** Its TGI is greater than 32.4 µM.

**Q.** What about the TGI [13] of the same compound?
**A.** The TGI was greater than 24.4 µM.

**Q.** And the TGI [14]?
**A.** Its TGI is greater than 33.2 µM.

**Q.** And the TGI [15]?
**A.** Its TGI is greater than 22.4 µM.

**Q.** And the TGI [16]?
**A.** Its TGI is greater than 51.6 µM.

**Q.** What about the TGI [17] of the same compound?
**A.** The TGI was greater than 31.8 µM.

**Q.** And the GI50 [18]?
**A.** Its GI50 is greater than 100 µM.

**Q.** And the TGI [18]?
**A.** The TGI was greater than 100 µM.

**Q.** What about the TGI [19] of the same compound?
**A.** Its TGI is greater than 24.7 µM.

**Q.** What about the TGI [20] of the same compound?
**A.** The TGI was greater than 34.1 µM.

**Q.** What about the TGI [21] of the same compound?
**A.** Its TGI is greater than 32.6 µM.

**Q.** What does the source list for C[C@]12CC[C@H]3[C@@H](C[C@@H]4N=C(c5ccc(O)cc5)S[C@@]45C[C@H](O)CC[C@]35C)[C@@H]1CC[C@@H]2O?
**A.** GI50 [22]: 4.42 µM; TGI [22]: 69.4 µM; GI50 [23]: 7.55 µM; TGI [23]: > 100 µM; GI50 [24]: 0.454 µM; TGI [24]: 3.23 µM; GI50 [6]: 6.77 µM; TGI [6]: > 100 µM; GI50 [25]: 4.12 µM; TGI [25]: > 100 µM; GI50 [26]: 2.86 µM; TGI [26]: 29.3 µM; GI50 [7]: 19.1 µM; TGI [7]: > 100 µM; GI50 [27]: 1.84 µM; TGI [27]: 25.7 µM; GI50 [8]: 3.48 µM; TGI [8]: > 100 µM; GI50 [28]: 3.05 µM; TGI [28]: 66 µM; GI50 [9]: 5.26 µM; TGI [9]: 50.5 µM; GI50 [10]: 2.05 µM; TGI [10]: 47.2 µM; GI50 [29]: 13.3 µM; TGI [29]: > 100 µM; GI50 [30]: 19 µM; TGI [30]: > 100 µM; GI50 [31]: 2.67 µM; TGI [31]: 14.6 µM; GI50 [11]: 1.37 µM; TGI [11]: 33.8 µM; GI50 [32]: 9.54 µM; TGI [32]: > 100 µM; GI50 [12]: 27.4 µM; TGI [12]: > 100 µM; GI50 [33]: 2.43 µM; TGI [33]: 7.64 µM; GI50 [1]: 5.95 µM; TGI [1]: > 100 µM; GI50 [13]: 6.98 µM; TGI [13]: 32.8 µM; GI50 [14]: 0.378 µM; TGI [14]: 2.5 µM; GI50 [34]: 4.94 µM; TGI [34]: > 100 µM; GI50 [35]: 9.14 µM; TGI [35]: > 100 µM; GI50 [36]: 7.29 µM; TGI [36]: > 100 µM; GI50 [15]: 1.93 µM; TGI [15]: > 100 µM; GI50 [2]: 2.48 µM; TGI [2]: 20.4 µM; GI50 [37]: 22.6 µM; TGI [37]: > 100 µM; GI50 [38]: 3.15 µM; TGI [38]: 13.1 µM; GI50 [16]: 1.59 µM; TGI [16]: 60.1 µM; GI50 [39]: 10.3 µM; TGI [39]: > 100 µM; GI50 [40]: 11.1 µM; TGI [40]: > 100 µM; GI50 [17]: 3.76 µM; TGI [17]: > 100 µM; GI50 [41]: 0.377 µM; TGI [41]: 1.31 µM; GI50 [42]: 3.51 µM; TGI [42]: 21.3 µM; GI50 [3]: 2.43 µM; TGI [3]: 20.7 µM; GI50 [43]: > 100 µM; TGI [43]: > 100 µM; GI50 [44]: 14 µM; TGI [44]: > 100 µM; GI50 [45]: 8.67 µM; TGI [45]: 83.7 µM; GI50 [18]: 3.34 µM; TGI [18]: 21.5 µM; GI50 [46]: 3.13 µM; TGI [46]: 20.4 µM; GI50 [47]: 8.4 µM; TGI [47]: > 100 µM; GI50 [4]: 7.24 µM; TGI [4]: > 100 µM; GI50 [48]: 0.423 µM; TGI [48]: 2.39 µM; GI50 [49]: 5.32 µM; TGI [49]: > 100 µM; GI50 [50]: 1.14 µM; TGI [50]: 19.4 µM; GI50 [51]: 2.23 µM; TGI [51]: 67.3 µM; GI50 [52]: 4.09 µM; TGI [52]: > 100 µM; GI50 [53]: 31.9 µM; TGI [53]: > 100 µM; GI50 [19]: 7.95 µM; TGI [19]: > 100 µM; GI50 [54]: 40.9 µM; TGI [54]: > 100 µM; GI50 [20]: 7.24 µM; TGI [20]: > 100 µM; GI50 [21]: 0.413 µM; TGI [21]: 2.03 µM; GI50 [55]: 16.4 µM; TGI [55]: > 100 µM; GI50 [5]: 2.37 µM; TGI [5]: 27.4 µM

**Q.** Which results are given for COc1ccccc1Cn1c2c(c3c(C(=O)NCCN(C)C)c(O)ccc31)C(=O)c1ccccc1C2=O?
**A.** TGI [22]: 3.46 µM; TGI [24]: 3.09 µM; TGI [6]: 4.93 µM; TGI [27]: 2.96 µM; TGI [8]: 4 µM; TGI [28]: 3.15 µM; TGI [29]: 3.62 µM; TGI [30]: 43.4 µM; TGI [32]: 3.31 µM; TGI [12]: 51.5 µM; TGI [13]: 3.72 µM; TGI [34]: 4.23 µM; TGI [35]: 3.19 µM; TGI [2]: 3.33 µM; TGI [40]: 3.23 µM; TGI [42]: 41.2 µM; TGI [45]: 3.36 µM; TGI [46]: 3.47 µM; TGI [50]: 64.7 µM; TGI [52]: 2.78 µM; TGI [53]: 3.02 µM; TGI [20]: 3.04 µM; TGI [55]: 3.24 µM
